Data on six molecules can be found in paper PMC9249808, “A novel lipidic peptide with potential to promote balanced effector-regulatory T cell responses” (Scientific Reports, 2022).

Non-standard residues stand in square brackets, D forms with d. Residues, ends and D or L forms follow the SMILES beside them. Gly(decyl) = CCCCCCCCCC[C@H](N)C(=O)O

The IC50 is the midpoint of a concentration-inhibition curve.

One test has as its target T1, JAK1 (Homo sapiens, UniProt P23458).
T1 construct: purchased Eurofins (France), KinaseProfiler service
Put plainly: Kinase profiling, JAK1. The test is classed as biochemical. As to the method: (§1) Non-cell-based kinase profiling assays were performed by Eurofins (France). All compounds were prepared to 50 × final assay concentration in 100% DMSO. This working stock of the compound was added to assay wells as the first component in the reaction, followed by the remaining components as detailed in the specific assay protocols below. In the standard KinaseProfiler service, there was no pre-incubation step between the compound and the kinase prior to initiation of the reaction. Control wells contained all components of the reaction, except the compound of interest; however, DMSO (at a final concentration of 2%) was included in these wells to control for solvent effects. […] The reference inhibitors for each kinase are indicated in the methods for each kinase assay. […] Kinase activities were assessed in the presence of compounds at a concentration range of 0.003 -10 uM and the following kinases were tested: c-Src, Lck, Jak1, Jak2, Tyk2, CaMKIV and HPK1 (MAP4K1). Reactions between IK14004, substrates and MgAcetate/[γ^33P-ATP] mixes for each respective kinase were stopped by the addition of phosphoric acid and reaction mixtures spotted on P30 filtermats for scintillation according to the detailed methods available from Eurofins. The activities of Lck and c-Src were also assessed in the presence of the unconjugated components of IK14004, i.e., […] […]

In a further test the target is T2, HPK1 (MAP4K1) (Homo sapiens, UniProt Q92918).
T2 construct: purchased Eurofins (France), KinaseProfiler service
T2 sequence (Q92918 whole entry): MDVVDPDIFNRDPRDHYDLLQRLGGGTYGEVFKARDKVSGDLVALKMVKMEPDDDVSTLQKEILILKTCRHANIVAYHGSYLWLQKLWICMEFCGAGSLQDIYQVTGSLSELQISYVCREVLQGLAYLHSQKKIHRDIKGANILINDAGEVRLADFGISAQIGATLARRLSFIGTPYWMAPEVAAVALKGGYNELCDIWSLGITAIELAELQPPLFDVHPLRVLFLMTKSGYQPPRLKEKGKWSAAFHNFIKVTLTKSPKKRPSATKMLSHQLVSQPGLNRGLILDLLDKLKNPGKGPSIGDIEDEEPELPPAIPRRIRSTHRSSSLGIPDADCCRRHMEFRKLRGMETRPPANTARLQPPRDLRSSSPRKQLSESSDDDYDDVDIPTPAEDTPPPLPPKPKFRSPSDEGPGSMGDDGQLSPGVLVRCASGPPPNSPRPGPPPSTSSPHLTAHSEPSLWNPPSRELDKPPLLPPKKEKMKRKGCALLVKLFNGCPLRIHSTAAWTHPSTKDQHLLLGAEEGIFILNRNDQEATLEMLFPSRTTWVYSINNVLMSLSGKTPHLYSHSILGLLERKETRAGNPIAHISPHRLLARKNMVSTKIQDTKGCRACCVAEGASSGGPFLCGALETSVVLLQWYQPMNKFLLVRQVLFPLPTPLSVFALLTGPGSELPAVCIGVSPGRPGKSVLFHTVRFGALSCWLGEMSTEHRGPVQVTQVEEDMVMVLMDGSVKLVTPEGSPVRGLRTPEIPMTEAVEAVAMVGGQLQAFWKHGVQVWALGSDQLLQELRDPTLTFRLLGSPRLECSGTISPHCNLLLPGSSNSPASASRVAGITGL
Put plainly: Kinase profiling, HPK1. Type of test: biochemical. As to the method: as §1

A further test deals with T3, CaMKIV (Homo sapiens, UniProt Q16566).
T3 construct: purchased Eurofins (France), KinaseProfiler service
Put plainly: Kinase profiling, CaMKIV. The test is classed as biochemical. As to the method:
as §1

In test [1] the test system is Lck. Put plainly: Kinase profiling, Lck. Type of test: biochemical. The following applies: Eurofins KinaseProfiler, [γ-33P-ATP] scintillation, 0.003-10 uM, 2% DMSO, no pre-incubation, Fig. 6c, 6e. As to the method:
Non-cell-based kinase profiling assays were performed by Eurofins (France). All compounds were prepared to 50 × final assay concentration in 100% DMSO. This working stock of the compound was added to assay wells as the first component in the reaction, followed by the remaining components as detailed in the specific assay protocols below. In the standard KinaseProfiler service, there was no pre-incubation step between the compound and the kinase prior to initiation of the reaction. Control wells contained all components of the reaction, except the compound of interest; however, DMSO (at a final concentration of 2%) was included in these wells to control for solvent effects. […] The reference inhibitors for each kinase are indicated in the methods for each kinase assay. […] Kinase activities were assessed in the presence of compounds at a concentration range of 0.003 -10 uM and the following kinases were tested: c-Src, Lck, Jak1, Jak2, Tyk2, CaMKIV and HPK1 (MAP4K1). Reactions between IK14004, substrates and MgAcetate/[γ^33P-ATP] mixes for each respective kinase were stopped by the addition of phosphoric acid and reaction mixtures spotted on P30 filtermats for scintillation according to the detailed methods available from Eurofins. The activities of Lck and c-Src were also assessed in the presence of the unconjugated components of IK14004, i.e., […] (IK14000) and the dodecanoic acid moiety [(2)Adod]4 (IK00041) and a lipidic peptide containing substituted amino acid residues (IK14DE04).

The next test relates to c-Src. Put plainly: Kinase profiling, c-Src. Type of test: biochemical. The following applies: Eurofins KinaseProfiler, [γ-33P-ATP] scintillation, 0.003-10 uM, 2% DMSO, no pre-incubation; Fig. 6d (IK14004 at concentrations below 3 µM), Fig. 6e. As to the method:
as §1

In another test the target is T4, Tyk2 (Homo sapiens, UniProt P29597).
T4 construct: purchased Eurofins (France), KinaseProfiler service
T4 sequence (P29597 whole entry): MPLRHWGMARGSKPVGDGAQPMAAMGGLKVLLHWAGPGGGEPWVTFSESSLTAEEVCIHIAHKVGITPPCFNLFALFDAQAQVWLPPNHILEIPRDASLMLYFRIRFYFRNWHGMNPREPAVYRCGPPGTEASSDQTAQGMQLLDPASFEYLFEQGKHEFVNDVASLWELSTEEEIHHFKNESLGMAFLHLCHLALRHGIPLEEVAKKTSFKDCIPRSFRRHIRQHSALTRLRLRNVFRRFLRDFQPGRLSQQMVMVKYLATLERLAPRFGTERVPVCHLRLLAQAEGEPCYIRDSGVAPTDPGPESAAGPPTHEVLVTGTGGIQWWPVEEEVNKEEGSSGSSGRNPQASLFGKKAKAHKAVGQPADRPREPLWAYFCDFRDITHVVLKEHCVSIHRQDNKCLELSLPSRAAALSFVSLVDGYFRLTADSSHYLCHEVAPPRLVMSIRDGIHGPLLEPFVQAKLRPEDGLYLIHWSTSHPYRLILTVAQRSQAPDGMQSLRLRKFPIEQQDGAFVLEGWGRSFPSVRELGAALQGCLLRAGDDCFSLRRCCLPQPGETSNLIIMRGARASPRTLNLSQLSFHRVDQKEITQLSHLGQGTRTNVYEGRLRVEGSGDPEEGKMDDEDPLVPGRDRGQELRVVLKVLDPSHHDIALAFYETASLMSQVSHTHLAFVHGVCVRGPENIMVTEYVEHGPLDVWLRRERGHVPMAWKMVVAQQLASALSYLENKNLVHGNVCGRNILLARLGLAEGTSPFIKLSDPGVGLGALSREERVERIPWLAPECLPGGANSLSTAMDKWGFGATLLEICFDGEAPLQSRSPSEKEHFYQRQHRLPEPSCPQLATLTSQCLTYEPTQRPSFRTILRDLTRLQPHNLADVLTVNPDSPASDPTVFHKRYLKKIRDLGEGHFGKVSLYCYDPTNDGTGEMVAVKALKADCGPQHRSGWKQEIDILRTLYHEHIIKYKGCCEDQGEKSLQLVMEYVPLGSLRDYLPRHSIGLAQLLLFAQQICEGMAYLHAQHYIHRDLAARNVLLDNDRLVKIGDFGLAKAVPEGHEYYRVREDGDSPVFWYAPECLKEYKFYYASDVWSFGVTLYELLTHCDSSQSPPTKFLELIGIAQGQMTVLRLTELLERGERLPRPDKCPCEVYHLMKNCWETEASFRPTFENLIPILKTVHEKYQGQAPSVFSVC
Put plainly: Kinase profiling, Tyk2. Conditions: non-cell-based, [γ-33P-ATP], 2% DMSO, no pre-incubation, Fig. 6i. The test is classed as biochemical. As to the method:
as §1

A further test relates to CD3+ T cell cultures. Put plainly: Cytokine ELISA on supernatants of isolated CD3+ T cell cultures. The test is classed as cell-based, human. As to the method: CD3^+ T cells were isolated from PBMCs by negative selection using immune-magnetic separation (Stem cell kits), resuspended in complete medium as used for PBMCs at 0.5 × 10^6/mL and plated at a density of 5 × 10^4 per well (100 µL) in 96-well, flat bottom culture plates. CD4^+ and CD8^+ T cell populations were isolated by immunomagnetic separation and resuspended in RPMI-10 at 0.5 × 10^6/mL with a plating density of 0.5 × 10^5 per well. Either the lipidic peptide, IK14004, or IK14000 ([…]) was added to wells at a final volume of 50 µL per well, together with anti-CD3 anti-CD28 coated Dynabeads (ThermoFisher) at a 4:1 cell:bead ratio (1.25 × 10^4/well, 50 µL volume) and cells cultured for 72 h at 37 °C and 5% CO2.
Supernatants were obtained from PBMC and isolated CD3+ T cells cultures to assess production of IL-2, IL-12p70, IL-10 and IFN-γ (ThermoFisher kits) and IL-12p40 (Biolegend). […] ELISA plates were read at 450 nm using an Infinite F50 (Tecan) absorbance reader and Magellan™ reader control and data analysis software. Flow cytometry data was exported as FCS files from Attune™ NxT software and analysed using FlowJo™ software, from which data were tabulated for export to Microsoft Excel. […]
For flow cytometry and ELISA experiments, data from IK14004 and vehicle groups were analysed using parametric statistical procedures. […]
Background: An ELISA detects its analyte on a solid surface through an enzyme-linked reagent.

The subject of the next test is IL-2 production. Conditions: cited from earlier work.
Test [2] concerns Lck. Conditions: in vitro; read-out: IC50, inhibition of Lck activity; cited from earlier work.
The test system of a further test is CD40L expression. Conditions: 48 h, in vitro; cited from earlier work. The source says:
An integrated understanding of how IL-2 and TCR co-stimulatory signals combine to control homeostasis in distinct tissue locations is lacking. The effects of IK14004 on cytokine production are shown in the Schematic (Fig. 7) together with putative effects on kinase-mediated signalling pathways involved in production of these cytokines. Maturation of DCs involves CD40L-CD40 interactions dependent upon T helper expression of CD40L[21],[22].

The mark [3] stands for this setting: blank wells, baseline 0% kinase activity remaining.

T1 sequence (P23458 whole entry): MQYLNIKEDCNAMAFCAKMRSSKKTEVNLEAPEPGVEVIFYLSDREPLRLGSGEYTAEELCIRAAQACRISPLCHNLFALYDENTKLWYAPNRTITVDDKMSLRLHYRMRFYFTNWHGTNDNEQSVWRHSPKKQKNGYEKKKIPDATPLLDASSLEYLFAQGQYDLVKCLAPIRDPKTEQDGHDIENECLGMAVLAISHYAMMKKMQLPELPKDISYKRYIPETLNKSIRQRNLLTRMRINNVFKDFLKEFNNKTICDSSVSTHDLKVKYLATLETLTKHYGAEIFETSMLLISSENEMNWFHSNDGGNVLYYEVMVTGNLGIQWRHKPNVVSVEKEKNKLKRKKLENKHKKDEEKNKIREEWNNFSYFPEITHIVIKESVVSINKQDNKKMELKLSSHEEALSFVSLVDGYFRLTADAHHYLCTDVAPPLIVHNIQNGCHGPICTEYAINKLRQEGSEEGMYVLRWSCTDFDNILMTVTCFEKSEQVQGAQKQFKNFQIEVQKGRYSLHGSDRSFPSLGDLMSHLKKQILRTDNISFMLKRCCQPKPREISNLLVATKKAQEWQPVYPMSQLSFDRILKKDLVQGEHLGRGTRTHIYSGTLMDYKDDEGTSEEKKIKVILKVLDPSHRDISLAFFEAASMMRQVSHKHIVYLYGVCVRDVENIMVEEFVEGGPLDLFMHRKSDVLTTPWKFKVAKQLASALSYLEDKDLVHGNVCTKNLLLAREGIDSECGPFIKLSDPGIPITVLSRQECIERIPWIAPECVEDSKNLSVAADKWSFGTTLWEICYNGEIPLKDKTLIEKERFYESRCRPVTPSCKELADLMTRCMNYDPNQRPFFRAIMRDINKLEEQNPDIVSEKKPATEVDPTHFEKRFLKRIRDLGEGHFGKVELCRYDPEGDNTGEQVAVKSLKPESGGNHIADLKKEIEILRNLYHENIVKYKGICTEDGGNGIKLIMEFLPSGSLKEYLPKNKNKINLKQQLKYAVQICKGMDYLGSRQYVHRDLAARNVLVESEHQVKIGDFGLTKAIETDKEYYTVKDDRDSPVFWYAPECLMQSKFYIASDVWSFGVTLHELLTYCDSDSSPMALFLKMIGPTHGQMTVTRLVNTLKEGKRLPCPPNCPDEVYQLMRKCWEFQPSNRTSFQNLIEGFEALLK

As for `CN[C@@H]1C[C@H]2O[C@@](C)([C@@H]1OC)n1c3ccccc3c3c4c(c5c6ccccc6n2c5c31)C(=O)NC4` [staurosporine, reference compound], the “JAK1 activity, reference inhibitor” value at JAK1 (setting [3]) is on record as “abolished kinase activity”. For the same molecule, the “HPK1 activity, reference inhibitor” value on HPK1 (MAP4K1) (setting [3]) is “abolished kinase activity”. Besides, the “CaMKIV activity, reference inhibitor” value at CaMKIV (setting [3]) is listed as “abolished kinase activity”.

As to [(2)Adod]4 [IK00041], the Lck activity result in the test with Lck [1] is “neither IK14000 nor IK00041 had an effect”.

With DSEAENPLYD [IK14DE04], in the test with Lck [1], the Lck activity entry is reported as “abolished the effects of IK14004”. In the test with c-Src, the c-Src activity entry is listed as “abolished the effects of IK14004”.

With `CCCCCCCCCC[C@H](NC(=O)[C@H](CCCCCCCCCC)NC(=O)[C@H](CCCCCCCCCC)NC(=O)[C@H](CCCCCCCCCC)NC(=O)[C@H](CCCNC(=N)N)NC(=O)[C@H](Cc1ccc(O)cc1)NC(=O)[C@H](CC(C)C)NC(=O)[C@@H]1CCCN1C(=O)[C@H](CC(N)=O)NC(=O)[C@H](CCCCN)NC(=O)[C@H](C)NC(=O)[C@H](CCCCN)NC(=O)[C@H](CO)NC(=O)[C@@H](N)CCCNC(=N)N)C(N)=O` [IK14004] (H-RSKAKNPLYR[Gly(decyl)][Gly(decyl)][Gly(decyl)][Gly(decyl)]-NH2), the concentration for half-maximal inhibition (IC50) against Tyk2 is 1000 nM; at JAK1 (non-cell-based, [γ-33P-ATP], 2% DMSO, no pre-incubation, Fig. 6i) it was 3 µM; at HPK1 (MAP4K1) (non-cell-based, [γ-33P-ATP], 2% DMSO, no pre-incubation, Fig. 6f), about 1000 nM; against CaMKIV (non-cell-based, [γ-33P-ATP], 2% DMSO, no pre-incubation, Fig. 6h) it was 3 µM.

As for `COc1cc(-c2nn([C@H]3CC[C@H](N4CCN(C(C)=O)CC4)CC3)c3ncnc(N)c23)ccc1NC(=O)c1cc2ccccc2n1C` [A-770041], in the test on CD3+ T cell cultures (0.1 µM in 0.1% DMSO, anti-CD3/anti-CD28, 72 h, ELISA, 7 experimental replicates, paired t-test **P < 0.01, Fig. 6a), the “IL-2 in supernatant of CD3+ T cell cultures, A-770041” value was “induced IL-2 production”. Besides, the “IL-2 level relative to IK14004” value in the test on CD3+ T cell cultures (A-770041 0.1 µM versus IK14004 (0.16 uM), 72 h, Fig. 6a vs 1f) was “much greater level than in the presence of IK14004”. In the test on IL-2 production (heparinised whole blood exposed to anti-CD3 plus PMA, ref Stachlewitz and colleagues [66]), the “IL-2 production, whole blood” value is “inhibition of IL-2 production”. For the same molecule, the IC50 was 80 nM in the test with IL-2 production (read-out: IC50, inhibition of IL-2 production, in vitro) and 147 nM with Lck [2].

B1: daclizumab: a humanised anti-CD25 mAb (antibody, chains of the INN, looked up, V domains shown)
VH: QVQLVQSGAEVKKPGSSVKVSCKASGYTFTSYRMHWVRQAPGQGLEWIGYINPSTGYTEYNQKFKDKATITADESTNTAYMELSSLRSEDTAVYYCARGGGVFDYWGQGTLVTVSS
VL: DIQMTQSPSTLSASVGDRVTITCSASSSISYMHWYQQKPGKAPKLLIYTTSNLASGVPARFSGSGSGTEFTLTISSLQPDDFATYYCHQRSTYPLTFGQGTKVEVK
As for B1, the “CD40L expression at later time points” value in the test with CD40L expression is “inhibitable”.
